The test system of experiment [1] is N-acyl-L-proline acylase. The experiment is classed as biochemical, Comamonas testosteroni DSM 5416. Here is the method: The enzymatic reaction was interrupted by pipetting 50 μl of the enzyme sample into 1.25 ml 100% acetic acid. Subsequently, 0.45 ml 0.1M tris-HCl buffer pH 7.0 and 1.25 ml ninhydrin reagent (3 g ninhydrin dissolved by heating in a mixture of 60 ml 100% acetic acid and 40 ml 6M phosphoric acid) were added. The ninhydrin reagent was freshly prepared daily. The test tubes were loosely closed with screw-on caps, incubated 30 minutes at 100° C. and subsequently cooled down in an ice bath.
The L-proline, liberated by the enzymatic hydrolysis, forms a red dye with ninhydrin at 100° C. The absorption of the red dye was measured in a spectrophotometer at 480 nm relative to a control batch without crude extract (=substrate blank). The concentration of the L-proline produced was determined using a straight calibration line with L-proline in a range of 5 to 100 nmoles per 50 μl specimen. The enzyme activity was indicated in international units; thus, one unit (U) corresponded to an amount of 1 μmole L-proline produced per minute.
The influence of various chemical agents as well as metal cations and anions on the reaction speed of the hydrolytic splitting of N-acetyl-L-proline was determined at 30° C. in a reaction batch with the following composition: […]
The enzyme was pre-incubated for 10 minutes at 30° C. with the compound before the addition of substrate to start the reaction.
The enzyme was pre-incubated for 10 minutes at 30° C. with the agent before the substrate was added to start the reaction.
The enzyme was pre-incubated 10 minutes at 30° C. with the agent before the substrate was added to start the reaction. The concentration of the anions was 10 mM in each instance.

For experiment [2], the system named is N-acyl-L-proline acylase. The experiment is described as follows: Substrate specificity: hydrolysis of N-acyl amino acids and proline derivatives. The format is biochemical, Comamonas testosteroni DSM 5416. Conditions: for Rel. activity (%) / Relative Activity (%): N-acetyl-L-proline = 100%; for Relative Activity (%): proline derivatives. How it is done: The activity of acylase was determined with various N-acetyl-L-amino acids and N-chloroacetyl-L-amino acids in a reaction batch with the following composition:
The reaction temperature was 30° C. and the incubation time 15 minutes to 24 hours. 0.2 ml samples of the reaction batch in each instance were mixed at different times with 0.2 ml 10% (w/v) trichloroacetic acid and the denatured protein centrifuged off for 10 minutes at 11,000 rpms in a table centrifuge. The supernatant was diluted with a 0.1M Na citrate buffer pH 2.2 with 25% (v/v) 2.2-thiodiethanol and 0.1% (v/v) phenol 1:5 and 1:50 respectively. The amino acids released were quantitatively detected by an amino-acid analyzer LC 5001 of the firm Biotronic, Maintal, Federal Republic of Germany. In Table 16, the substrates marked with * and the corresponding products were quantified by means of HPLC.
The activity of the acylase was determined with various proline derivatives as under a).

Setting [3] is: 20 mM substrate 1.0 ml in 2.0 ml batch, 30° C., pH 7.0, amino-acid analyzer.
Setting [4] is: chemical agent 1 mM, 10 min pre-incubation at 30° C., no agent = 100.
Setting [5] is: chemical agent 10 mM, 10 min pre-incubation at 30° C., no agent = 100.

“And” between values parts separate entries of the source, which are not always exact repeats. Identical values can stand only once. “Also recorded” adds a separate entry of the source. Like-named read-outs stand apart in the source and are kept apart here. Where a SMILES comes first, the peptide text is derived from it. The star is where a group is joined. Cbz = O=C(OCc1ccccc1)*

For the compound `O=S(=O)([O-])[O-].[Na+].[Na+]` [Na2 SO4], the “Activity (%)” value with N-acyl-L-proline acylase [1] (anion 10 mM, no agent = 100) turned out to be 96%.
On to `O=C(O)C1SCCN1C(=O)CCl` (racemic) [ClAc--D,L-thiazolidine-2-carboxylic acid, N-chloroacetyl-DL-thiazolidine-2-carboxylic acid], for which the “Hydrolysis by the acylase (in words)” value in the experiment with N-acyl-L-proline acylase [2] is “hydrolyzed especially well”. Besides, the “Rel. activity (%)” value with N-acyl-L-proline acylase [2] (substrate concentration 50 mM, quantified by HPLC) came out at 202%.
Regarding `O=C(O)O` [Na2 CO3], in the experiment with N-acyl-L-proline acylase [1], the “Activity (%)” value is given as 75% and the “Influence on the acylase activity (in words)” value (shortened to “Influence”) is “slightly inhibited”.
For `O=C(NCC(=O)N1CCC[C@H]1C(=O)O)OCc1ccccc1` [N-benzyloxycarbonyl-glycyl-L-proline] (Cbz-Gly-Pro-OH), the “Hydrolysis by the acylase (in words)” value in the experiment on N-acyl-L-proline acylase [2] is recorded as “hydrolyzes”. Further, the “Relative Activity (%)” value with N-acyl-L-proline acylase [2] (30° C., pH 7.0) was found to be 11%.
For the compound `NC(=O)[C@@H]1CCCN1` [H--L--Pro--NH2], the “Relative Activity (%)” value with N-acyl-L-proline acylase [2] (30° C., pH 7.0) is reported as 0%.
As to `CC(=O)N1CC[C@H]1C(=O)O` [Ac--L-azetidine-2-carboxylic acid], the “Rel. activity (%)” value in the experiment with N-acyl-L-proline acylase [2] (quantified by HPLC) was 0%.
Regarding `CC(=O)N1CCC[C@H]1C(N)=O` [N-acetyl-L-prolineamide], the “Hydrolysis by the acylase (in words)” value with N-acyl-L-proline acylase [2] was “not hydrolyzed”. In the experiment on N-acyl-L-proline acylase [2] (30° C., pH 7.0), the “Relative Activity (%)” value was 0%.
`O=C(O)[C@@H]1CCCN1C(=O)CCl` [N-chloroacetyl-L-proline]: in the experiment with N-acyl-L-proline acylase [2], the “Hydrolysis by the acylase (in words)” value is “hydrolyzes; also recorded: hydrolyzed especially well” and the “Hydrolysis rate, times more rapid than N-acetyl-L-proline” value was “about 3.6 times”. The “Rel. activity (%)” value with N-acyl-L-proline acylase [2] (setting [3]) came to 362%. In the experiment with N-acyl-L-proline acylase [2] (30° C., pH 7.0), the “Relative Activity (%)” value came out at 362%.
`C[C@H](N)C(=O)N1CCC[C@H]1C(=O)O` [H--L Ala--L--Pro--OH] (H-Ala-Pro-OH): in the experiment on N-acyl-L-proline acylase [2] (30° C., pH 7.0), the “Relative Activity (%)” value is recorded as 0%.
Turning to `N[C@@H](CCC(=O)N[C@@H](CS)C(=O)NCC(=O)O)C(=O)O` [Glutathione], the “Activity (%)” value with N-acyl-L-proline acylase [1] was 116% and 135%.
Regarding `CCCC(=O)N1CCC[C@H]1C(=O)O` [N-butyryl-L-proline], the “Hydrolysis by the acylase (in words)” value with N-acyl-L-proline acylase [2] is on record as “hydrolyzes”. For the same compound, the “Relative Activity (%)” value in the experiment on N-acyl-L-proline acylase [2] (30° C., pH 7.0) stood at 14%.
As for `NC(=O)[C@@H]1CCCN1C(=O)OCc1ccccc1` [Z--L--Pro--NH2], the “Relative Activity (%)” value in the experiment with N-acyl-L-proline acylase [2] (30° C., pH 7.0) was found to be 0%.
On to `CC(=O)N[C@H](C(=O)O)C(C)C` [Ac--L--Val], for which the “Rel. activity (%)” value in the experiment on N-acyl-L-proline acylase [2] (setting [3]) was 0.2%.
Turning to `O=C(O)CN(CCN(CC(=O)O)CC(=O)O)CC(=O)O` [EDTA], the “Activity (%)” value in the experiment on N-acyl-L-proline acylase [1] was 101% and 99%.
For `O=C(O)[C@H]1CCCN1C(=O)OCc1ccccc1` [Z--D--Pro--OH], the “Relative Activity (%)” value with N-acyl-L-proline acylase [2] (30° C., pH 7.0) is 0%.
Turning to `O=C(O)CI` [Iodoacetate], the “Activity (%)” value with N-acyl-L-proline acylase [1] was 97% and 77%.
For `NC(=O)CI` [Iodoacetamide], the “Activity (%)” value in the experiment on N-acyl-L-proline acylase [1] (setting [4]) came to 104%; with N-acyl-L-proline acylase [1] (setting [5]) it was 101%.
As for `CC[C@H](C)[C@H](NC(=O)CCl)C(=O)O` [ClAc--L--Ile], the “Rel. activity (%)” value in the experiment on N-acyl-L-proline acylase [2] (setting [3]) is 0.5%.
As for `NCC(=O)N1CCC[C@H]1C(=O)O` [glycyl-L-proline] (H-Gly-Pro-OH), the “Hydrolysis by the acylase (in words)” value in the experiment on N-acyl-L-proline acylase [2] is “hydrolyzes”. In the experiment with N-acyl-L-proline acylase [2] (30° C., pH 7.0), the “Relative Activity (%)” value is 4%.
For the compound `O=C(O)[C@@H]1CCCCN1C(=O)CCl` [N-chloroacetyl-L-pipecolic acid], the “Hydrolysis by the acylase (in words)” value in the experiment with N-acyl-L-proline acylase [2] is on record as “hydrolyzes”.
Consider `O=P([O-])(O)O.[Na+]` [NaH2 PO4], for which, in the experiment on N-acyl-L-proline acylase [1], the Inhibiting mechanism result is recorded as “non-competitive”. Besides, the “Activity (%)” value with N-acyl-L-proline acylase [1] (anion 10 mM, no agent = 100) is on record as 6%. Besides, the “Influence” value in the experiment on N-acyl-L-proline acylase [1] (native enzyme, listed as PO4^3-) is on record as “inhibiting action”; in the experiment on N-acyl-L-proline acylase [1] (native enzyme, listed as Phosphate), “inhibited”; in the experiment with N-acyl-L-proline acylase [1] (native enzyme, listed as phosphate), “sharply inhibited”.
Turning to `NNC(N)=O` [Semicarbazide], the figures for the “Activity (%)” value in the experiment on N-acyl-L-proline acylase [1] (setting [4]) and with N-acyl-L-proline acylase [1] (setting [5]) were 109% and 95%, respectively.
In the case of `O=C([O-])c1cc[c]([Hg][Cl])cc1` [4-chloromercuribenzoate], the “Activity (%)” value worked out at 85% in the experiment on N-acyl-L-proline acylase [1] (setting [4]) and 48% in the experiment with N-acyl-L-proline acylase [1] (setting [5]). Moreover, the “Influence” value in the experiment on N-acyl-L-proline acylase [1] (native enzyme) is given as “inhibiting action; also recorded: significantly inhibit”.
As to `O=C(CCl)NC1(C(=O)O)CCCCC1` [ClAc--D,L-1-aminocyclohexanoic acid], the “Rel. activity (%)” value in the experiment with N-acyl-L-proline acylase [2] (setting [3]) is listed as 0%.

(Values after patent publication US5219741A, “Method of making L-proline using an N-acyl-L-protine acylase” (priority 1990, dated 1993).)
